From ChEMBL document CHEMBL5346880, “ATP-competitive inhibitors of human DNA topoisomerase IIα with improved antiproliferative activity based on N-phenylpyrrolamide scaffold” (Eur J Med Chem, 2023)
≈ marks a conversion by molar mass, not a printed value.

What was measured:
[1] = biological target: T1, DNA topoisomerase 2-alpha (Homo sapiens, UniProt P11388); assay: Inhibition of human DNA topoisomerase 2 alpha assessed as relaxation of supercoiled plasmid pNO1 DNA incubated for 30 mins by fluorescence based analysis
T1 sequence (P11388 whole entry): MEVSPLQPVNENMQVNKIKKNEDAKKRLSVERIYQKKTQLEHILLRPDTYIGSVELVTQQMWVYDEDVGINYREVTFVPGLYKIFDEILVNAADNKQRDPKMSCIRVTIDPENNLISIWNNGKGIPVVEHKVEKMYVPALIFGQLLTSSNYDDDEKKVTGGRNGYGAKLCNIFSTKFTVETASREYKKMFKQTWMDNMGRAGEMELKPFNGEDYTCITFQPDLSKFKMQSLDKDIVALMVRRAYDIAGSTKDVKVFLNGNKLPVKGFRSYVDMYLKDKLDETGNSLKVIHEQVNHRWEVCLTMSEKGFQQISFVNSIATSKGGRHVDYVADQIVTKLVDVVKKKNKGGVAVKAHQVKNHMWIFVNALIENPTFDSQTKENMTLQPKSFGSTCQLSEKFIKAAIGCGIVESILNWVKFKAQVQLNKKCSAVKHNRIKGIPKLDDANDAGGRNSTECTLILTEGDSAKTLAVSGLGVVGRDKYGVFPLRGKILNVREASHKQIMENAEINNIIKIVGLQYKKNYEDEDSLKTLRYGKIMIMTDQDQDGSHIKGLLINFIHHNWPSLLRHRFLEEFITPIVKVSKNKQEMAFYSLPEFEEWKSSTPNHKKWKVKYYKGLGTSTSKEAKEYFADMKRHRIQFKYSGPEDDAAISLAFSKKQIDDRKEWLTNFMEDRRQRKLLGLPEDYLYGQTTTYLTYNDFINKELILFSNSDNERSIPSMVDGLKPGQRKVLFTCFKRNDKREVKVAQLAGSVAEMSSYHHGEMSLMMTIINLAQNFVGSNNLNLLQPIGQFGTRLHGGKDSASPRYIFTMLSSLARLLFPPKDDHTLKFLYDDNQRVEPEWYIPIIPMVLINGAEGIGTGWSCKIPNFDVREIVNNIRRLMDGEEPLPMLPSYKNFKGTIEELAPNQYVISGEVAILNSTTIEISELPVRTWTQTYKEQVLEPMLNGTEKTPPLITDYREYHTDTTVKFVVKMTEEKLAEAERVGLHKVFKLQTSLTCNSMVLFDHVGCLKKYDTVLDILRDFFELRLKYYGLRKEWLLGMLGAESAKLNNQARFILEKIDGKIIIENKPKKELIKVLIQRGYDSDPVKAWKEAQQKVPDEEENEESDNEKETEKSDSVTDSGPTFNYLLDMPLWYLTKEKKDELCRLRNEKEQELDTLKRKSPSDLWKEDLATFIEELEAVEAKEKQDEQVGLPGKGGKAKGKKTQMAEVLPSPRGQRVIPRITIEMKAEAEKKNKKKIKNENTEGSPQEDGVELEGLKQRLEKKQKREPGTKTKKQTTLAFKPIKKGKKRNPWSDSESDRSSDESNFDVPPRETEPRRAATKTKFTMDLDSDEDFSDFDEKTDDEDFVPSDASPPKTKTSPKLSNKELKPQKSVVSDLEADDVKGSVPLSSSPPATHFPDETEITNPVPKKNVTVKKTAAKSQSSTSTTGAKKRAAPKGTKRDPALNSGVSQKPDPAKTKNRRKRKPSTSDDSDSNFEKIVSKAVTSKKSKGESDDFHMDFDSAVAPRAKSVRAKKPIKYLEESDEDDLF

[2] = biological target: T1, DNA topoisomerase 2-alpha; assay: Inhibition of human DNA topoisomerase 2 alpha assessed as ATP hydrolysis measured for 30 mins by absorbance based assay
[3] = Cytotoxicity against HEK293 cells assessed as inhibition of cell growth incubated for 72 hrs by MTS assay; type: toxicity, cell-based; details: human
[4] = Selectivity index, ratio of IC50 for HEK293 cells to IC50 for human MCF7 cells; type: toxicity; details: HEK293 cells versus MCF7 cells, read-out: Ratio IC50
[5] = Selectivity index, ratio of IC50 for HEK293 cells to IC50 for human HepG2 cells; type: toxicity; details: HEK293 cells versus HepG2 cells, read-out: Ratio IC50
[6] = Thermodynamic aqueous solubility of compound in PBS buffer at pH 7.4 at 25 degreeC measured after 24 hrs by UPLC analysis; type: physicochemical; details: read-out: Therm_solubility
[7] = Metabolic stability in rat liver S9 fraction assessed as half life at 100 uM measured upto 120 mins in presence of NADPH by HPLC analysis; type: ADME, subcellular
MCF7 = assay: cells; details: Homo sapiens, MCF7, 72 h
Description: Cytotoxicity against human MCF7 cells assessed as inhibition of cell growth incubated for 72 hrs by MTS assay

HepG2 = assay: cells; details: Homo sapiens, HepG2, 72 h
Description: Cytotoxicity against human HepG2 cells assessed as inhibition of cell growth incubated for 72 hrs by MTS assay

K562 = assay: Cytotoxicity against human K562 cells assessed as reduction in cell viability at 10 uM by MTT assay; type: functional, cell-based
DNA topoisomerase 1 = biological target: T2, DNA topoisomerase 1 (Homo sapiens, UniProt P11387); assay: Inhibition of human DNA Topoisomerase 1 assessed as relaxation of supercoiled plasmid pBR322 DNA incubated for 30 mins by ethidium bromide staining based agarose gel electrophoresis
T2 sequence (P11387 whole entry): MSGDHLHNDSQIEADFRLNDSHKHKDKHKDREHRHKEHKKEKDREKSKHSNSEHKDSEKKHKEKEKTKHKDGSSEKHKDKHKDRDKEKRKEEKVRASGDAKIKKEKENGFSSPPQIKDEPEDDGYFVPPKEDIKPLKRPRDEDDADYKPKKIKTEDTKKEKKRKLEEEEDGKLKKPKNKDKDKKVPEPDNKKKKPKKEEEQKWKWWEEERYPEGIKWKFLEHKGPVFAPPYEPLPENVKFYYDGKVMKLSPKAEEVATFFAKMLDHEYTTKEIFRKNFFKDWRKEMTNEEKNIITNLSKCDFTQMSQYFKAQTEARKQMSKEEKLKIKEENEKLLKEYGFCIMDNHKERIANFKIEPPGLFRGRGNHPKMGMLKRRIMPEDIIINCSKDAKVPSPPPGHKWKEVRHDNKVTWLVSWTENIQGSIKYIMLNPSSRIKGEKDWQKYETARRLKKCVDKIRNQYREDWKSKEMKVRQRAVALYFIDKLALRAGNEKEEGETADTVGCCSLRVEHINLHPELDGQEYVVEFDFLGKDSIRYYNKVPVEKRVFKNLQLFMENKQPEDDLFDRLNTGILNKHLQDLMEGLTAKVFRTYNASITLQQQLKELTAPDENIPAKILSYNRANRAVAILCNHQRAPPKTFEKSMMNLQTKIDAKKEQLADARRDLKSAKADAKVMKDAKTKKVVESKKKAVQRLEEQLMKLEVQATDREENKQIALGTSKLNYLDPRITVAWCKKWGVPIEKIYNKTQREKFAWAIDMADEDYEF

Row | SMILES | IC50 [1] [µM] | also measured
1 | Cc1[nH]c(C(=O)Nc2ccccc2OCc2cccc(C(=O)NCCN)c2)cc1F | > 100 | –
2 | Cc1[nH]c(C(=O)Nc2cc(C(=O)O)ccc2OC2CCNCC2)c(Cl)c1Cl | > 100 | –
3 | Cc1[nH]c(C(=O)Nc2ccc(C(=O)N3CCNCC3)cc2OC(C)C)c(Cl)c1Cl | > 100 | –
4 | Cc1[nH]c(C(=O)Nc2ccc(C(N)=O)cc2NC(C)C)c(Cl)c1Cl | 13 | –
5 | Cc1[nH]c(C(=O)Nc2ccccc2OCc2cccc(C(N)=O)c2)c(Cl)c1Cl | > 100 | –
6 | Cc1[nH]c(C(=O)Nc2ccccc2OCc2cccc(C(=O)NCCN)c2)c(Cl)c1Cl.Cl | 3 | IC50 [2]: 2.3 µM; IC50 at 72 h [3]: 27 µM; selectivity ratio [4]: 3; selectivity ratio [5]: 1.8; solubility thermodynamic at 24 h [6]: 18 µM; half-life at 100 µM [7]: > 5 h; IC50 (MCF7): 9 µM; IC50 (HepG2): 15 µM
7 | CCc1[nH]c(C(=O)Nc2ccc(C(N)=O)cc2OC(C)C)nc1Cl | 6.6 | half-life at 100 µM [7]: > 5 h
8 | Cc1[nH]c(C(=O)Nc2cc(C(=O)O)ccc2OC2CCN(C(=O)OC(C)(C)C)CC2)c(Cl)c1Cl | 38 | –
9 | Cc1[nH]c(C(=O)Nc2ccc(C(N)=O)cc2OCc2cccc(C(=O)NCCC(=O)O)c2)c(Cl)c1Cl | 3.4 | –
10 | Cc1[nH]c(C(=O)Nc2ccc(C(=O)NC3CCNCC3)cc2OC(C)C)c(Cl)c1Cl | 4.5 | –
11 | NCCNC(=O)c1cccc(COc2ccccc2NC(=O)c2cc([N+](=O)[O-])c[nH]2)c1 | > 100 | –
12 | Cc1[nH]c(C(=O)Nc2ccccc2OC2CCN(C(=O)OC(C)(C)C)C2)c(Cl)c1Cl (centres undefined) | > 100 | –
13 | Cc1[nH]c(C(=O)Nc2ccc(C(N)=O)cc2OC2CCNCC2)c(Cl)c1Cl.Cl | – | half-life at 100 µM [7]: > 5 h
14 | Cc1[nH]c(C(=O)Nc2ccccc2OCc2cccc(C(=O)NC3CCNC3)c2)c(Cl)c1Cl.Cl (centres undefined) | 6.3 | solubility thermodynamic at 24 h [6]: 15 µM; IC50 (K562): 0.57 µM
15 | Cc1[nH]c(C(=O)Nc2ccc(C(N)=O)cc2OCc2cccc(C(=O)NCCN)c2)c(Cl)c1Cl.Cl | 1 | half-life at 100 µM [7]: > 5 h
16 | Cc1ccc(C(=O)Nc2ccccc2OCc2cccc(C(=O)NCCN)c2)[nH]1 | > 100 | –
17 | Cc1[nH]c(C(=O)Nc2ccc(C(N)=O)cc2OCc2cccc(C(=O)NCC(=O)O)c2)c(Cl)c1Cl | 3.5 | –
18 | NCCNC(=O)c1cccc(COc2ccccc2NC(=O)c2cc(Br)c(Br)[nH]2)c1 | 45 | –
19 | Cc1[nH]c(C(=O)Nc2cc(C(N)=O)ccc2OC(C)C)c(Cl)c1Cl | > 100 | –
20 | Cc1[nH]c(C(=O)Nc2cc(C(N)=O)ccc2OCCN)c(Cl)c1Cl | 18 | –
21 | CCc1nc2nc(Nc3ccc4nc(OCCN5CCOCC5)ccc4c3)nc(NC(C)(C)C)c2[nH]1 | 0.73 | IC50 (MCF7): 7.7 µM; IC50 (HepG2): 11 µM
22 | Cc1[nH]c(C(=O)Nc2ccc(C(N)=O)cc2NCCN)c(Cl)c1Cl.Cl | > 100 | half-life at 100 µM [7]: > 5 h
23 | Cc1[nH]c(C(=O)Nc2ccc(C(=O)NCC3CCNCC3)cc2OC(C)C)c(Cl)c1Cl.Cl | 2.9 | solubility thermodynamic at 24 h [6]: 15 µM
24 | COc1ccc(NC(=O)c2[nH]c(C)c(Br)c2Br)c(C(=O)NCCc2ccc(C(=O)O)cc2)c1 | 25 | –
25 | Cc1[nH]c(C(=O)Nc2ccccc2OC2CCNCC2)c(Cl)c1Cl.Cl | – | half-life at 100 µM [7]: > 5 h
26 | Cc1[nH]c(C(=O)Nc2ccc(C(=O)NCC(=O)O)cc2OC(C)C)c(Cl)c1Cl | 7.2 | IC50 (MCF7): > 50 µM; IC50 (HepG2): > 50 µM

Row | SMILES | IC50 [1] [µM] | also measured
27 | Cc1[nH]c(C(=O)Nc2ccccc2OC2CCN(C(=O)OC(C)(C)C)CC2)c(Cl)c1Cl | > 100 | –
28 | O=C(O)c1ccc(CCNC(=O)c2cc(O)ccc2NC(=O)c2cc(Br)c(Br)[nH]2)cc1 | 22 | –
29 | COc1ccc(NC(=O)c2cc(Br)c(Br)[nH]2)c(C(=O)NCc2ccc(C(=O)O)cc2)c1 | 39 | half-life at 100 µM [7]: 4.83 h
30 | Cc1[nH]c(C(=O)Nc2ccc(C(N)=O)cc2OCC(=O)N2CCCC(N)C2)c(Cl)c1Cl (centres undefined) | 8.3 | –
31 | Cc1[nH]c(C(=O)Nc2ccc(C(N)=O)cc2N2CCOC(C)C2)c(Cl)c1Cl (centres undefined) | > 100 | –
32 | Cc1[nH]c(C(=O)Nc2ccccc2OCc2cccc(C(=O)NCCN)c2)cc1Cl | 35 | –
33 | NS(=O)(=O)c1ccc(CNC(=O)c2cc(O)ccc2NC(=O)c2cc(Br)c(Br)[nH]2)cc1 | > 100 | –
34 | CCNC(=O)Nc1ccc(OC2CCNCC2)c(NC(=O)c2[nH]c(C)c(Cl)c2Cl)c1 | 38 | IC50 (MCF7): 33 µM; IC50 (HepG2): 38 µM
35 | NCCNC(=O)c1cccc(COc2ccccc2NC(=O)c2cc(Cl)c(Cl)[nH]2)c1 | 76 | –
36 | COc1ccc(NC(=O)c2[nH]c(C)c(Cl)c2Cl)c(C(=O)NCc2ccc(C(=O)O)cc2)c1 | 67 | half-life at 100 µM [7]: > 5 h
37 | Cc1[nH]c(C(=O)Nc2ccc(O)cc2C(=O)NCc2ccc(C(=O)O)cc2)c(Cl)c1Cl | 24 | –
38 | C[C@]12CC[C@H]3[C@@H](CCC4=CC(=O)CC[C@@]43C)[C@@H]1CC[C@@H]2O [TESTOSTERONE] | – | half-life at 100 µM [7]: 0.142 h
39 | CCc1cnc(C(=O)Nc2ccc(C(N)=O)cc2OC(C)C)[nH]1 | > 100 | –
40 | Cc1[nH]c(C(=O)Nc2ccc(C(N)=O)cc2OCC(=O)N2CCCC(NC(=O)OC(C)(C)C)C2)c(Cl)c1Cl (centres undefined) | > 100 | –
41 | CCc1[nH]c(C(=O)Nc2ccccc2OCc2cccc(C(=O)NCCN)c2)nc1Cl | 37 | –
42 | Cc1[nH]c(C(=O)Nc2ccc(C(=O)N[C@@H](Cc3ccccc3)C(=O)O)cc2OC(C)C)c(Cl)c1Cl | 5 | IC50 (MCF7): > 50 µM; IC50 (HepG2): > 50 µM
43 | Cc1[nH]c(C(=O)Nc2ccc(C(=O)N3CCCC(N)C3)cc2OC(C)C)c(Cl)c1Cl (centres undefined) | 32 | –
44 | COC(=O)[C@@H](C)NC(=O)c1ccc(NC(=O)c2[nH]c(C)c(Cl)c2Cl)c(OC2CCNCC2)c1 | 45 | IC50 (MCF7): 8.7 µM; IC50 (HepG2): 9.8 µM
45 | COc1cc(NS(C)(=O)=O)ccc1Nc1c2ccccc2nc2ccccc12 [AMSACRINE] | – | IC50 (DNA topoisomerase 1): 74 µM
46 | Cc1[nH]c(C(=O)Nc2ccccc2OCc2cccc(C(=O)N3CCCC(N)C3)c2)c(Cl)c1Cl (centres undefined) | 27 | IC50 at 72 h [3]: 1.7 µM; selectivity ratio [4]: 1.3; selectivity ratio [5]: 0.9; IC50 (K562): 0.77 µM; IC50 (MCF7): 1.3 µM; IC50 (HepG2): 1.9 µM
47 | Cc1[nH]c(C(=O)Nc2ccc(C(N)=O)cc2N2CCOCC2)c(Cl)c1Cl | > 100 | –
48 | Cc1[nH]c(C(=O)Nc2ccccc2OCc2cccc(C(=O)NC3CCCNC3)c2)c(Cl)c1Cl.Cl (centres undefined) | 7.7 | IC50 at 72 h [3]: 2.1 µM; selectivity ratio [4]: 14; selectivity ratio [5]: 16; solubility thermodynamic at 24 h [6]: 10 µM; half-life at 100 µM [7]: > 5 h; IC50 (K562): 0.19 µM; IC50 (MCF7): 0.15 µM; IC50 (HepG2): 0.13 µM
49 | Cc1[nH]c(C(=O)Nc2cc(C(N)=O)ccc2OC2CCNC2)c(Cl)c1Cl (centres undefined) | 32 | –
50 | Cc1[nH]c(C(=O)Nc2ccccc2OCc2cccc(C(=O)O)c2)c(Cl)c1Cl | 29 | solubility thermodynamic at 24 h [6]: 2.1 µM (≈ 0.88 µg/mL)
51 | Cc1[nH]c(C(=O)Nc2ccc(C(=O)NC3CCCNC3)cc2OC(C)C)c(Cl)c1Cl.Cl (centres undefined) | 1.3 | solubility thermodynamic at 24 h [6]: 4.6 µM; half-life at 100 µM [7]: > 5 h
